Measured values reported in patent US8552048B2, “Phosphoramidate alkylator prodrugs for the treatment of cancer” (Threshold Pharmaceuticals, Inc., priority 2006, dated 2013).
Several values for one entry are separate records, joined by “and”; a condition that tells them apart may be missing. Identical values can stand only once. Entries after “also recorded” stand apart in the source; their conditions may differ. Like-named read-outs stand apart in the source and are kept apart here.

How the values were obtained:
H460 xenograft tumor = assay: H460 xenograft, TH302 in combination with X-ray radiation; type: in vivo, mice; conditions: X-ray 1.2 Gy/day for 5 days with TH302 ip 75 mg/kg per day for 5 days, 30 min after each radiation dose; 75 mg/kg/day
Experimental: H460 xenograft tumor bearing mice were treated with X-ray radiation (one cycle of 1.2 Gy/day for 5 days) alone and in combination with TH302 (administered ip, 75 mg/kg per day for 5 consecutive days 30 min after each radiation dose). […] The oxygen radicals involved in killing tumor cells, and which are generated by irradiation of oxygen e.g. under normoxic conditions, can not form efficiently under hypoxic conditions.

[1] = tested on: PC-3 human prostate cells; assay: PC-3 luciferase intracardiac metastasis model (bioluminescence); type: in vivo, nude mice
Experimental: Male nude mice were injected into their left ventricle with PC-3 human prostate cells (3×10^6) transfected with the gene for luciferase. The success of the intracardiac transfections was verified by a bioluminescence scan after the injection. On day 14, the mice with established bone tumor burden were randomized into four treatment groups (N=10): Taxotere® alone (20 mg/kg once a week for three weeks, i.v.), TH302 alone (50 mg/kg daily, 5 days a week for 3 weeks), combination treatment with both agents, and vehicle. Bioluminescence imaging was performed under anesthesia using an IVIS 50 optical imaging system.

[2] = Biodistribution by whole body autoradiography; type: in vivo, male Sprague Dawley rats; conditions: rats, [^14C] TH302 50 mg/kg single i.v. bolus
Experimental: TH302 to rats. Five male Sprague Dawley rats were assigned to one dose group. Non-radiolabeled TH302 (0.06 g) was weighed into an appropriate formulation bottle, a solution of 153 μL of [^14C] TH302 was measured and transferred to the formulation bottle, followed by the addition of 6.85 mL of 50 PEG400 in saline. The resulting formulation was cold-sterilized by filtration through a 0.22 μm mesh size commercial filter. The dosing formulation was kept at ambient temperature and in the dark pending dose administration. Animals were administered radiolabelled TH302 by intravenous injection of the formulation at a dose of 50 mg/kg wherein a radioactivity of about 100 μCi was administered. Following administration of TH302, the animals were sacrificed at selected time-points and carcasses were flash-frozen and processed for sectioning. A series of sagittal and para-sagittal sections were obtained from each carcass and were exposed to highly sensitive film until adequate imprinting of radioactivity was obtained. The pictures obtained were analyzed semi-quantitatively using computerized densitometry.

[3] = Single-dose toxicity in dogs; type: in vivo
Experimental: A single-dose of TH302 was administered to rats and dogs over 30 min in order to achieve a rapid increase to relatively high drug levels. Rats were administered 50, 100, and 200 mg/kg, and dogs at 8, 16 and 32 mg/kg of TH302. […] These changes at the lowest toxicity level were fully reversible within 2 weeks.

[4] = Stability of ethanol formulation of TH302 by HPLC; type: physicochemical; conditions: for TH302 (%): 40 μg/mL in ethanol
Experimental: A liquid formulation of TH302 in ethanol was prepared containing 1 mg TH302 in 1 mL of the solution. Aliquots were withdrawn from this formulation and diluted with ethanol to yield a 40 μg/mL formulation of TH302 in ethanol, which was incubated at 20° C. and 37° C. and the stability analyzed by high performance liquid chromatography (HPLC). The HPLC employed the following components and conditions: column (Alltech, Alltima C18, 50×4.6, 3 μm), mobile phase (water and acetonitrile), flow rate 0.8 mL/min, injection volume (10 μL), detection (UV detection at 325 nm and 254 nm), and column temperature (room temperature). The composition of the mobile phase was as tabulated below: […]

[5] = Pharmacokinetics in cynomolgus monkeys (20 mg/kg i.v.); type: in vivo; conditions: for Vd: read-out: Vss
Experimental: Pharmacokinetic studies were performed in male CD-1 (50 mg/kg i.p. or orally (p.o.)) or female nude mice (50 mg/kg i.v. or i.p.), male Sprague-Dawley rats (1, 5, 20 and 50 mg/kg i.v. and 100 mg/kg, p.o.), beagle dogs (20 mg/kg, i.v.) and cynomologus monkeys (20 mg/kg i.v.). Plasma TH302 concentrations were analyzed using a LC/MS method and the pharmacokinetic parameters computed using a noncompartmental method. Interspecies scaling was performed according to standard methods.
Individual and mean pharmacokinetic parameters of TH302 following intravenous administration at a dose of 20 mg/kg (N=3) is shown in Table 7.

[6] = TH302 alone 50 mg/kg daily, 5 days a week for 3 weeks, end of the study (day 43)
[7] = cynomolgus monkey, plasma, iv, 20 mg/kg, cynomolgus monkeys, Mean (N=3)
[8] = cynomolgus monkey, plasma, iv, 20 mg/kg, monkeys
[9] = cynomolgus monkeys, individual animals, 20 mg/kg

For `Cn1c(COP(=O)(NCCBr)NCCBr)cnc1[N+](=O)[O-]` [TH302], the “effect on anti tumor efficacy of radiation” value (H460 xenograft tumor) was “enhances the anti cancer effect of X-ray; also recorded: enhances the anti tumor efficacy of radiation”, the “toxicities (weight loss, deaths)” value ([1]; TH302 50 mg/kg daily 5 days a week for 3 weeks, Taxotere 20 mg/kg once a week for three weeks i.v., or both) was “minimal weight loss; also recorded: no toxicity beyond Taxotere® related toxicities” and the “reduction of bone metastases” value [1, 6] was 94%. The “reduction of soft tissue tumor burden” value [1, 6] was 95%, the distribution of radioactivity [2] was “associated with the gastro-intestinal (GI) tract, its contents, and the kidney” and the “affected organs at the highest dose level” value ([3]; 32 mg/kg single dose) was “bone marrow, kidney, thymus and intestine”. For the same compound, the lethality ([3]; single dose over 30 min, highest dose 32 mg/kg) was “lethality was observed”, the “primary findings at the lowest toxicity level” value ([3]; single dose study) was “reduction in white blood cell counts” and the “time to full reversal of changes at the lowest toxicity level” value ([3]; single dose study) was ≤ 2 weeks. For the same compound, the “TH302 (%)” value ([4]; 20° C., incubated 0 days) was 96.97%, the “TH302 (%)” value ([4]; 20° C., incubated 3 days) was 96.98% and the “TH302 (%)” value ([4]; 20° C., incubated 5 days) was 96.91%. For the same compound, the “TH302 (%)” value ([4]; 20° C., incubated 7 days) was 96.96%, the “TH302 (%)” value ([4]; 20° C., incubated 10 days) was 96.95% and the “TH302 (%)” value ([4]; 20° C., incubated 14 days) was 96.98%. For the same compound, the “TH302 (%)” value ([4]; 37° C., incubated 0 days) was 96.97%, the “TH302 (%)” value ([4]; 37° C., incubated 3 days) was 96.95% and the “TH302 (%)” value ([4]; 37° C., incubated 5 days) was 96.98%. For the same compound, the “TH302 (%)” value ([4]; 37° C., incubated 7 days) was 96.98%, the “TH302 (%)” value ([4]; 37° C., incubated 10 days) was 96.30% and the “TH302 (%)” value ([4]; 37° C., incubated 14 days) was 96.01%. For the same compound, the “TH302 (%)” value ([4]; 37° C., incubated 24 days) was 95.46%, the “stability of solution in ethyl alcohol” value ([4]; 20° C., under the test conditions) was “stable” and the AUC(0-t) [5, 7] was 3140 ng·h/mL. The clearance [5, 7] was 128 mL/min/kg, the Cmax ([5]; cynomolgus monkey, plasma, iv, 20 mg/kg, cynomolgus monkeys, Mean (N=3), read-out: Cmax) was 20700 ng/mL and the MRT ([5]; cynomolgus monkey, plasma, iv, 20 mg/kg, cynomolgus monkeys, Mean (N=3), read-out: MRT) was 19.8 min. For the same compound, the Vd [5, 7] was 2.92 L/kg, the Cmax ([5]; cynomolgus monkey, plasma, iv, 20 mg/kg, cynomolgus monkeys, individual animals, read-out: Cmax) was 15900 ng/mL and the MRT ([5]; cynomolgus monkey, plasma, iv, 20 mg/kg, cynomolgus monkeys, individual animals, read-out: MRT) was 28.6 min. It also gave a clearance [5, 8] of 128 mL/min/kg, a Vd [5, 8] of 2.92 L/kg and a Tmax ([5]; cynomolgus monkey, plasma, iv, cynomolgus monkeys, individual animals) of 1.98 min. It also gave a half-life ([5]; cynomolgus monkey, plasma, iv, monkeys, read-out: Plasma t1/2) of 24.9 min, a Vβ ([5]; cynomolgus monkeys, Mean (N=3)) of 6.17 L/kg and a half-life ([5]; cynomolgus monkeys, Mean (N=3)) of 24.9 min. The AUClast [5, 9] was 1519 ng·h/mL and 3961 ng·h/mL and 3932 ng·h/mL, the Cl [5, 9] was 217 mL/min/kg and 81.7 mL/min/kg and 84.5 mL/min/kg and the Cmax [5, 9] was 28500 ng/mL and 17600 ng/mL. For the same compound, the MRT [5, 9] was 14.7 min and 16.1 min, the Vss [5, 9] was 6.18 L/kg and 1.20 L/kg and 1.36 L/kg and the Vβ [5, 9] was 15.5 L/kg and 1.37 L/kg and 1.65 L/kg. For the same compound, the half-life [5, 9] was 49.6 min and 11.6 min and 13.6 min.
